{"source": "patent US9150608B2", "about": "“Neuro-protective compounds and their use” (Biotechnology Research Corp. Ltd., priority 2010, dated 2015)", "key": {"[1]": {"system": "rat cortical neurons cultured in the absence of B27", "test": "Cortical neuron survival assay with B27 withdrawal (MTT)", "assay_type": "cell-based", "details": "for cell survival of cortical neurons in the absence of B27 (MTT): 30 μM, pre-treated 24 hours (FIG. 15); for concentration showing neuroprotective effect in the absence of B27 (MTT): primary cortical neurons 7DIV, dose-dependent study 1-30 μM", "experimental": "FIG. 2. Adelostemma gracillimum refined fraction promotes rat cortical neuron survival against B27 withdrawal. Cortical neurons isolated from embryonic day 18 rats were cultured in Neurobasal medium supplemented with 2 % B27. […] A MTT assay was performed 24 hours later. Cell survival is presented as a percentage compared to a DMSO control in the presence of B27 (“CTL with B27”). Assays were conducted in triplicate and repeated at least twice. *=P<0.05.\nPrimary cortical neurons were cultured in Neurobasal medium and supplemented with B27, a proprietary formula of Life Technologies. The combination of Neurobasal medium and B27 provides a stable growth environment for primary neurons to maturity in vitro. Neurons undergo apoptosis or cell death in the absence of B27. To study the neuroprotective effect of Adelostemma gracillimum refined fraction, neurons of 7DIV were treated with AG-0 and cell survival was measured as mitochondrial activity by the MTT assay.\nThe cells were then washed with Hanks' solution twice and replaced with test samples that were serial diluted in Neurobasal medium. A tetrazole, 3-(4,5-Dimethylthiazol-2-yl)-2,5-diphenyltetrazolium bromide (MTT, 5 mg/ml) was added to the medium at a ratio of 1:10 after a 2-day incubation. MTT is reduced by living cells into purple formazan and further solubilized in 20% SDS solution; therefore, the colored solution was measured by spectrophotometer and cell viability was quantified."}, "[2]": {"system": "Aβ25-35-treated primary cortical neurons", "test": "Cortical neuron survival assay with amyloid-beta peptide insult (MTT)", "assay_type": "cell-based, rat", "details": "50 μM, except GAG-C69 at 30 μM; Aβ25-35 10 μM (FIG. 19)", "experimental": "FIG. 4. […] After overnight incubation, the MTT assay was performed. Cell survival was calculated as a percentage compared to vehicle control (“CTL no Abeta”).\nExogenous addition of amyloid beta peptide (Aβ) initiates cell death of neuronal cultures via apoptosis.\nThe cells were then incubated with test samples and amyloid-beta peptide fragment 25-35 (Aβ, 10 μM, Sigma) in growth medium. A tetrazole, 3-(4,5-Dimethylthiazol-2-yl)-2,5-diphenyltetrazolium bromide (MTT, 5 mg/ml) was added to the medium at a ratio of 1:10 after 24-hr incubation. MTT is reduced by living cells into purple formazan and further solubilized in 20% SDS solution; therefore, the colored solution was measured by spectrophotometer and cell viability was quantified."}, "[3]": {"system": "NMDA receptor-induced excitotoxicity in primary cortical neuronal cells", "test": "NMDA survival assay (LDH release)", "details": "30-50 μM pre-treated 2 hours, NMDA 20 min (FIG. 17)", "procedure": "Embryonic rat cortical neurons (11 DIV) were pre-treated with various concentrations of AG—0 (0.1 -30 μg/mL) and then co-incubated with NMDA (20 μM). After 20 min, the medium was replaced with fresh medium, and after overnight incubation lactate dehydrogenase (LDH) released into the medium was measured. Cell death was calculated as a percentage compared to solvent control (“CTL without NMDA”). Assays were conducted in duplicate and repeated at least twice. *=P<0.05.\nCortical neurons were plated on 48-well plate (Nunc) at a density of 1.1×10^5 cells per well and cultured for 11-12 days (11-12 DIV). Neurons were pre-treated with the test compounds for 2 hours prior to N-Methyl-D-Aspartate (NMDA, Sigma) or glutamate (MSG, Sigma) treatment. Briefly, the neurons were rinsed with Locke's solution (5 mM potassium chloride, 128 mM sodium chloride, 2.7 mM calcium chloride, 1 mM di-sodium hydrogen orthophosphate, 5 mM HEPES and 10 mM glucose in Milli-Q water) without Mg^2+, followed by incubation in Locke's solution with addition of glycine (0.1 μM) for 15 minutes. After the incubation, the neurons were co-treated with the test compound (dissolved in Locke's plus glycine solution) and NMDA (20 μM) or glutamate for 20 min. Neurons were then rinsed with Locke's solution containing Mg^2+ and replaced with fresh growth medium. Cell death was assayed and quantified using the lactate dehydrogenase release assay (Cytotoxicity Detection Kit, Roche). Data was compared to a DMSO vehicle control and represented in mean±SEM. The student t-test was used for statistical analysis."}, "[4]": {"system": "phosphorylated ERK, CREB, Akt, P38, MEK in cortical neurons", "test": "Western blot detection of signaling proteins in cortical neurons", "assay_type": "cell-based, rat", "details": "cortical neurons 7DIV"}}, "data": [{"compound": "COc1c2ccoc2c(OCC=C(C)C)c2oc(=O)ccc12", "note": "[GAG-C82, 8-(3-methylbut-2-enyloxy)-5-methoxyl-psoralen]", "values": [{"measurement": "cell survival of cortical neurons in the absence of B27 (MTT)", "setting": "[1]", "value": "promoted cell survival"}]}, {"compound": "12-O-cis/trans-cinnamoyl-20-acetyl-8,14-seco-sarcostin 3-O-β-D-Cymaropyranosyl-(1→4)-β-D-Cymaropyranosyl-(1→4)-β-D-Digitoxopyranosyl-(1→4)-β-D-Cymaropyranosyl-(1→4)-β-D-Oleandropyranoside [GAG-C104]", "values": [{"measurement": "cell survival of cortical neurons treated with Aβ25-35 (MTT)", "setting": "[2]", "value": "promoted cell survival"}, {"measurement": "neuronal survival following NMDA treatment (LDH)", "setting": "[3]", "value": "promoted neuronal survival"}]}, {"compound": "COC1CC(OC2C(C)CC(OC3C(C)OC(OC4CC[C@@]5(C)C(=CC[C@]6(O)C5C[C@@H](OC(=O)C=Cc5ccccc5)[C@@]5(C)[C@]6(O)CC[C@@]5(O)C(C)=O)C4)CC3OC)CC2OC)OC(C)C1O", "note": "(stereo partly drawn) [GAG-C87, Ikemagenin 3-O-β-D-Cymaropyranosyl-(1→4)-β-D-Oleandropyranosyl-(1→4)-β-D-Oleandropyranoside]", "values": [{"measurement": "neuronal survival following NMDA treatment (LDH)", "setting": "[3]", "value": "promoted neuronal survival"}]}, {"compound": "COC1CC(OC2C(C)OC(OC3C(C)OC(OC4C(C)OC(OC5CC[C@@]6(C)C(=CC[C@]7(O)C6C[C@@H](OC(=O)/C=C(\\C)C(C)C)[C@@]6(C)[C@]7(O)CC[C@@]6(O)C(C)=O)C5)CC4OC)CC3OC)CC2OC)OC(C)C1O", "note": "(stereo partly drawn) [GAG-C92, Caudatin 3-O-β-D-Cymaropyranosyl-(1→4)-β-D-Cymaropyranosyl-(1→4)-β-D-Oleandropyranosyl-(1→4)-β-D-Oleandropyranoside]", "values": [{"measurement": "neuronal survival following NMDA treatment (LDH)", "setting": "[3]", "value": "promoted neuronal survival"}]}, {"compound": "(K)-methyl 15-hydroxy-15-methoxy-12-oxopentadec-13-enoate [GAG-C78]", "values": [{"measurement": "ERK phosphorylation time course", "setting": "[4]; 30 μM", "value": "significantly induced ERK phosphorylation in cortical neurons from 15 min and persistently to 180 min"}, {"measurement": "CREB phosphorylation", "setting": "[4]; 30 μM, 15 min of incubation", "value": "induced CREB phosphorylation"}, {"measurement": "cell survival of cortical neurons in the absence of B27 (MTT)", "setting": "[1]", "value": "promoted cell survival"}, {"measurement": "concentration showing neuroprotective effect in the absence of B27 (MTT)", "setting": "[1]", "value": "10 to 30", "unit": "µM"}]}, {"compound": "C/C=C/c1cc(O)c(OC(C)C(O)c2cc(OC)c(O)c(OC)c2)c(OC)c1", "note": "(stereo not drawn) [GAG-C59, 4,5′,7-trihydroxy-3, 3′,5-trimethyoxyl-hydroxy-(7′E)-(8-O-4)-neolignan-7′ en]", "values": [{"measurement": "cell survival of cortical neurons treated with Aβ25-35 (MTT)", "setting": "[2]", "value": "promoted cell survival"}]}, {"compound": "CC1(C)CC[C@@]2(C(=O)O)CC[C@]3(C)C(=CCC4[C@@]5(C)CCC(O)C(C)(CO)C5CC[C@]43C)C2C1", "note": "(stereo partly drawn) [GAG-C74, 3β,23-dihydroxyolean-12-en-28-oic acid]", "values": [{"measurement": "cell survival of cortical neurons treated with Aβ25-35 (MTT)", "setting": "[2]", "value": "promoted cell survival"}]}, {"compound": "COc1cc(C)cc(C(O)C(O)c2cc(C)ccc2OC)c1", "note": "(stereo not drawn) [GAG-C80, 2-(2-methoxy-5-methylphenyl)-1-(3-methoxy-5-methylphenyl)-ethane-1,2-diol]", "values": [{"measurement": "cell survival of cortical neurons in the absence of B27 (MTT)", "setting": "[1]", "value": "promoted cell survival"}, {"measurement": "concentration showing neuroprotective effect in the absence of B27 (MTT)", "setting": "[1]", "value": "10 to 30", "unit": "µM"}]}, {"compound": "COc1cc(C2Oc3c(OC)ccc(C(C)=O)c3C2C)ccc1O", "note": "(stereo not drawn) [GAG-C51, 3-methoxyl-4,4′-dihydroxy-1″-athanone-3′7-epoxy-8,2″-neolignane]", "values": [{"measurement": "neuronal survival following NMDA treatment (LDH)", "setting": "[3]", "value": "promoted neuronal survival"}]}, {"compound": "12-O-cis/trans-cinnamoyl-20-acetyl-8,14-seco-sarcostin 3-O-β-D-Cymaropyranosyl-(1→4)-β-D-Oleandropyranosyl-(1→4)-O-D-Oleandropyranoside [GAG-C90]", "values": [{"measurement": "neuronal survival following NMDA treatment (LDH)", "setting": "[3]", "value": "promoted neuronal survival"}]}, {"compound": "CC(C)=CCOc1c2occc2cc2ccc(=O)oc12", "note": "[GAG-C81, 8-(3-methylbut-2-enyloxy)-psoralen]", "values": [{"measurement": "cell survival of cortical neurons in the absence of B27 (MTT)", "setting": "[1]", "value": "promoted cell survival"}, {"measurement": "neuroprotective effect in the absence of B27 (MTT)", "setting": "[1]; 1-50 μM", "value": "exhibited neuroprotective effects in a dose-dependent manner"}]}, {"compound": "CC1CC(C)(C)C2C=C(CC/C=C/C1=O)C(=O)O2", "note": "(stereo not drawn) [GAG-C65, 8-oxohumula-2, 6(E)-dien-1,12-olide]", "values": [{"measurement": "neuronal survival following NMDA treatment (LDH)", "setting": "[3]", "value": "promoted neuronal survival"}]}, {"compound": "12-O-cis/trans-cinnamoyl-20-acetyl-8,14-seco-sarcostin 3-O-β-D-Cymaropyranosyl-(1→4)-β-D-Cymaropyranosyl-(1→4)-β-D-Oleandropyranosyl-(1→4)-β-D-Oleandropyranoside [GAG-C96]", "values": [{"measurement": "neuronal survival following NMDA treatment (LDH)", "setting": "[3]", "value": "promoted neuronal survival"}]}, {"compound": "3-O-β-D-Cymaropyranose-(1→4)-β-D-Digitoxopyranose-12-trans-cinnamyl-20-acetyl-8,14-seco-sacrostin [GAG-C30]", "values": [{"measurement": "cell survival of cortical neurons treated with Aβ25-35 (MTT)", "setting": "[2]", "value": "promoted cell survival"}]}, {"compound": "12-O-cis/trans-cinnamoyl-20-acetyl-8,14-seco-sarcostin 3-O-β-D-Cymaropyranosyl-(1→4)-β-D-Digitoxopyranosyl-(1→4)-β-D-Oleandropyranosyl-(1→4)-β-D-Oleandropyranoside [GAG-C102]", "values": [{"measurement": "neuronal survival following NMDA treatment (LDH)", "setting": "[3]", "value": "promoted neuronal survival"}]}, {"compound": "C/C=C/c1ccc(OC(C)C(O)c2ccc(O)c(O)c2)c(OC)c1", "note": "(stereo not drawn) [GAG-C13, 3,4,7-trihydroxyl-3′-methoxy-(7′E)-(8-O-4′)-neolignan-7′-en]", "values": [{"measurement": "cell survival of cortical neurons treated with Aβ25-35 (MTT)", "setting": "[2]", "value": "promoted cell survival"}, {"measurement": "cell survival of cortical neurons in the absence of B27 (MTT)", "setting": "[1]", "value": "promoted cell survival"}, {"measurement": "neuronal survival following NMDA treatment (LDH)", "setting": "[3]", "value": "promoted neuronal survival"}]}, {"compound": "C/C=C/c1ccc(OC(C)C(O)c2cc(OC)c(O)c(OC)c2)c(OC)c1", "note": "(stereo not drawn) [GAG-C121, 3,3′,5-trimethoxy-4,7-dihydroxyl-(7′E)-(8-O-4′)-neolignan-7′en]", "values": [{"measurement": "cell survival of cortical neurons treated with Aβ25-35 (MTT)", "setting": "[2]", "value": "promoted cell survival"}]}, {"compound": "12-O-cis/trans-cinnamoylsacrostin 3-O-β-D-Cymaropyranosyl-(1→4)-β-D-Oleandropyranosyl-(1→4)-β-D-Oleandropyranoside [GAG-C86]", "values": [{"measurement": "neuronal survival following NMDA treatment (LDH)", "setting": "[3]", "value": "promoted neuronal survival"}]}, {"compound": "COc1cc(C2c3cc(OC)c(O)cc3C3Oc4c(C(C)=O)ccc(O)c4CC3C2CO)ccc1O", "note": "(stereo not drawn) [GAG-C61, 4-hydroxy-3′-methoxy-(7′E)-5′7-epoxy-8,4′-oxyneolignane-7′ en]", "values": [{"measurement": "neuronal survival following NMDA treatment (LDH)", "setting": "[3]", "value": "promoted neuronal survival"}]}, {"compound": "COc1cc([C@@H]2c3cc(OC)c(O)cc3C=C(C)[C@H]2C)ccc1O", "note": "[GAG-C70, (7′α,8′β)-4,4′-dihydroxyl-3,3′-dimethyoxyl-6,7′-cycloligane-7-en]", "values": [{"measurement": "ERK phosphorylation", "setting": "[4]; 0.1-10 μM, 15 min (FIGS. 16, 18, 20)", "value": "induced ERK phosphorylation"}, {"measurement": "cell survival of cortical neurons treated with Aβ25-35 (MTT)", "setting": "[2]", "value": "promoted cell survival"}, {"measurement": "neuronal survival following NMDA treatment (LDH)", "setting": "[3]", "value": "promoted neuronal survival"}]}]}
